Data from patent publication US20070082920A1, “NAD+-dependent DNA ligase inhibitors” (priority 2005, published 2007).

How the values were obtained:
[1] = system: Staphylococcus aureus ATCC 29213; experiment: MIC, broth microdilution (CLSI), S. aureus; assay type: cell-based; conditions: lowest concentration inhibiting visual growth
Protocol: (§1) The compounds of Formulas 1-VIII were evaluated as inhibitors of NAD+-dependent DNA ligase inhibitors. Their antimicrobial activity was evaluated against bacteria using the broth microdilution method as described by Clinical Laboratory Standards Institute (formerly NCCLS). Activity was assessed against the following bacterial strains: Staphylococcus aureus ATCC 29213, Streptococcus pneumoniae ATCC 49619, Escherichia coli ATCC 25922, E. coli CGSC 5633 (ToIC mutant), Haemophilus influenzae ATCC 49766, Streptococcus pyogenes ATCC 19615, Moraxella catterhalis ATCC 25238, Enterococcus faecalis ATCC 29212. The lowest concentration of compound which inhibited visual growth of each bacterium, the minimum inhibitory concentration (MIC), was determined.

[2] = system: Streptococcus pneumoniae ATCC 49619; experiment: MIC, broth microdilution (CLSI), S. pneumoniae; assay type: cell-based
Protocol: as §1

[3] = system: Escherichia coli ATCC 25922; experiment: MIC, broth microdilution (CLSI), E. coli ATCC 25922; assay type: cell-based; parameters: unit not given here
Protocol: as §1

[4] = system: E. coli CGSC 5633 (ToIC mutant); experiment: MIC, broth microdilution (CLSI), E. coli CGSC 5633; assay type: cell-based, Escherichia coli; parameters: unit not given beside the values
Protocol: as §1

[5] = system: Enterococcus faecalis ATCC 29212; experiment: MIC, broth microdilution (CLSI), E. faecalis; assay type: cell-based; parameters: unit not given here
Protocol: as §1

[6] = system: Haemophilus influenzae ATCC 49766; experiment: MIC, broth microdilution (CLSI), H. influenzae; assay type: cell-based; parameters: unit not given beside the values
Protocol: as §1

[7] = system: Moraxella catterhalis ATCC 25238; experiment: MIC, broth microdilution (CLSI), M. catarrhalis; assay type: cell-based
Protocol: as §1

[8] = system: Streptococcus pyogenes ATCC 19615; experiment: MIC, broth microdilution (CLSI), S. pyogenes; assay type: cell-based
Protocol: as §1

[9] = Acute toxicity, Alamar blue cell viability, HepG2; assay type: cell-based; conditions: human
Protocol: (§2) Acute toxicity was assessed against two mammalian cell lines, HepG2 (human hepatocyte) and NIH 3T3 (mouse fibroblast). Cell viability was measured by an in vitro assay using Alamar blue. The concentration of compound which inhibited 50% of the cell growth (LC50) was determined.

[10] = Acute toxicity, Alamar blue cell viability, NIH 3T3; assay type: cell-based; conditions: mouse
Protocol: as §2

[11] = HepG2 cells, Alamar blue, 50% inhibition of cell growth, read-out: Acute Tox LC50 μM/ HepG2
[12] = NIH 3T3 cells, Alamar blue, 50% inhibition of cell growth, read-out: Acute Tox LC50 μM/ NIH-3T3

| SMILES | MIC S. aureus ATCC 29213 [1] | MIC S. pneumoniae [2] | MIC E. coli ATCC 25922 [3] | MIC E. coli CGSC 5633 [4] | MIC E. faecalis [5] | MIC H. influenzae [6] | MIC M. catarrhalis [7] | MIC S. pyogenes [8] | CC50 [9] [µM] | CC50 [10] [µM] | CC50 [9, 11] [µM] | CC50 [10, 12] [µM] |
| --- | --- | --- | --- | --- | --- | --- | --- | --- | --- | --- | --- | --- |
| Cc1cc(NCc2ccc(C(F)(F)F)cc2)nc2nc(N)nc(N)c12 [III-c] | 16 | 4 | 16 | 0.25 | 4 | 16 | 8 | 4 | 22.8 | 11.2 | – | – |
| Cc1cc(NCc2cc(C(F)(F)F)cc(C(F)(F)F)c2)nc2nc(N)nc(N)c12 [III-d] | 16 | 2 | 16 | 1 | 1 | 16 | 4 | 2 | 19.5 | 7.72 | – | – |
| Cc1cc(N2CCCc3ccccc32)nc2nc(N)nc(N)c12 [V-a] | 32 | 8 | 64 | <0.125 | <0.125 | 16 | 16 | 32 | 27.1 | 11.5 | – | – |
| Cc1cc(NCc2cc(C(F)(F)F)ccc2F)nc2nc(N)nc(N)c12 [III-k] | 16 | 2 | 32 | – | 0.5 | 32 | 16 | 16 | – | – | – | – |
| COc1cc(CN(C)c2nc3nc(N)nc(N)c3c(C)c2C2CCCC2)cc(OC)c1 [II-h] | 4 | 0.5 | 32 | <0.125 | <0.125 | 4 | 1 | 1 | 17.5 | 3.26 | – | – |
| Cc1cc(NCc2ccc3c(c2)OCO3)nc2nc(N)nc(N)c12 [III-m] | 64 | 2 | 64 | 0.5 | 2 | 8 | 16 | 8 | – | – | – | – |
| Cc1cc(NCc2cc(F)cc(C(F)(F)F)c2)nc2nc(N)nc(N)c12 [III-b, 2,4-diamino-5-methyl-7-[(3-fluoro-5-trifluoromethylbenzyl)amino]-pyrido[2,3-d]pyrimidine] | 16 | 1 | 16 | <0.125 | 0.5 | 32 | 8 | 4 | 20.9 | 8.34 | – | – |
| Cc1cc(NCc2cc(F)c(F)c(F)c2)nc2nc([N+](=O)[O-])nc([N+](=O)[O-])c12 [VIII-a] | 8 | 16 | 64 | 4 | 16 | 32 | 2 | 8 | – | – | > 30.8 | 22.2 |
| Cc1cc(NCc2ccc(F)cc2)nc2nc(N)nc(N)c12 [III-a] | 32 | 64 | 32 | 0.25 | 4 | 2 | 8 | 2 | 24 | 8.14 | – | – |
| Nc1nc(N)c2c3c(c(N4Cc5ccccc5C4)nc2n1)CCCC3 [VII-c] | 16 | 8 | >128 | – | 1 | >128 | 4 | 16 | – | – | – | – |
| COc1cc(CN(C)c2cc(C)c3c(N)nc(N)nc3n2)cc(OC)c1 [IV-c] | 32 | 0.5 | 16 | <0.125 | 0.5 | 32 | 1 | 8 | 37.4 | 14.6 | – | – |
| Cc1cc(NCc2cccc(C(F)(F)F)c2F)nc2nc(N)nc(N)c12 [III-g] | 16 | 2 | 16 | 0.5 | 2 | 32 | 4 | 4 | – | – | – | – |
| Cc1cc(NCc2ccc(C(F)(F)F)cc2F)nc2nc(N)nc(N)c12 [III-h] | 16 | 4 | 16 | 0.5 | 4 | 16 | 4 | 4 | – | – | – | – |
| COc1cc(CN(C)c2nc3nc(N)nc(N)c3c3c2CCCC3)cc(OC)c1 [VII-e] | 32 | 0.5 | 64 | 1 | <0.1250 | 16 | 4 | 2 | – | – | – | – |
| Cc1cc(NCc2cc(F)cc(C(F)(F)F)c2)nc2nc([N+](=O)[O-])nc([N+](=O)[O-])c12 [VIII-b] | 8 | 8 | 64 | 2 | 4 | 64 | 4 | 4 | – | – | > 16.4 | 12.1 |
| Cc1cc(NCc2ccc(F)cc2C(F)(F)F)nc2nc(N)nc(N)c12 [III-j] | 16 | 1 | 32 | 0.25 | 1 | 16 | 4 | 4 | – | – | – | – |
| Cc1c(C(C)C)c(NCc2cc(F)cc(C(F)(F)F)c2)nc2nc(N)nc(N)c12 [II-f] | 8 | 8 | 128 | – | 2 | 32 | 4 | 8 | – | – | – | – |
| Nc1nc(N)c2c3c(c(NCc4cc(F)cc(F)c4)nc2n1)CCCC3 [VII-d] | 32 | 8 | 64 | – | 8 | 32 | 16 | 8 | – | – | – | – |
| COc1ccc(CN(C)c2cc(C)c3c(N)nc(N)nc3n2)cc1OC [IV-b] | 64 | 2 | 64 | 0.125 | – | 16 | 8 | – | > 28.2 | 13.2 | – | – |
